Experiments:
[1] = system: nitric oxide (NO) production; test: NO production assay in LPS-stimulated peritoneal macrophages (Griess reagent); type: cell-based, mice; conditions: CBD alone, 0.05 µM to 50 µM (FIG. 1)
Procedure: Macrophage isolation and cell culture - Peritoneal macrophages were collected from the peritoneal cavity of 6-8-week-old male ICR mice (Harlan, Israel) given an intraperitoneal injection of 1.5 ml of thioglycollate broth (4%) 4 days before harvest. Peritoneal macrophages were washed three times with PBS and if needed a hypotonic lysis of erythrocytes was performed, yielding 90-95% purity. The macrophages were identified by fluorescence-activated cell sorting (FACS) analysis using FITC-conjugated rat antimouse F4/80 (MCA497F; Serotec, Oxford, England) by flow microfluorimetry on FACS (Becton Dickinson, Mountain View, CA). For each sample, 10,000 light scatter-gated viable cells were analyzed. […]
To the control groups, appropriate volumes of DMSO (0.1-0.2%) were added. The percent inhibition of each experimental group was calculated comparatively to the relevant and corresponding control.
NO production assay —NO levels in supernatants of cell cultures were determined by assaying nitrite levels using Griess reagent and sodium nitrite as a standard.
Peritoneal macrophages were incubated with the compounds 1 h before addition of LPS and cultured overnight. NO production was determined in the supernatant of the cultures and the % of inhibition from untreated macrophages was determined. […]

Macrophages = test: MTT cell viability assay with CBD; type: cell-based; conditions: increasing CBD concentrations (FIG. 2)
Procedure: FIG. 2 includes a vertical bar graph showing the effect of CBD on cell viability. MTT assay was performed in the presence of increasing CBD concentrations.
The inventors initially examined the sole effect of cannabidiol (CBD) on nitric oxide (NO) production. Macrophages were stimulated, and NO production was examined in the presence of increasing CBD concentrations, ranging from 0.05 µM to 50 µM.

nitric oxide (NO) = test: NO production in bone marrow derived macrophages treated with an inflammatory stimulus (lycopene, CBDA); type: cell-based; conditions: CBDA alone, 2.5 µM, 5 µM, 10 µM (FIG. 8A)
Procedure: Bone marrow derived macrophages were treated with an inflammatory stimulus in the presence of various concentration of lycopene, cannabidiolic acid (CBDA), tomato extract and hemp extract in vitro. As an inflammatory outcome, nitric oxide (NO) was monitored.
Full Study with test material and benchmarks - Cells were treated with tomato and hemp extract for 24 hours to determine viability. Cells were then treated as follows; (1) medium alone (unstimulated control), (2) LPS stimulation- 10 µg/mL, (3) each crude extracts (Tomato/Hemp) at concentration of IC50, (4) LPS + crude extracts, (5) control inhibitor, and (6) LPS + control inhibitor. The tomato and hemp extract and benchmarks (lycopene, CBDA) were tested in 5 different rations; 1:10, 1:5, 1:1, 5:1, 10:1.
Nitric oxide production was determined for each treatment.

**Q.** With `C=C(C)[C@@H]1CCC(C)=C[C@H]1c1c(O)cc(CCCCC)cc1O` [CBD, 2-[(6R)-3-Methyl-6-prop-l-en-2-yl-lcyclohex-2-envyl]-5pentylbenzene-l,3-diol] as the compound, how does the “% of NO production inhibition” value [1] read?
**A.** The value was “increased in a CBD dose-dependent manner”.

**Q.** And the “CBD concentration toxic to the cells (cell viability, MTT)” value (Macrophages)?
**A.** Its value is at least 25 µM.

**Q.** `C=C(C)[C@@H]1CCC(C)=C[C@H]1c1c(O)cc(CCCCC)c(C(=O)O)c1O` [CBDA, cannabidiolic acid] was tested. Which “inhibition of NO production” value (nitric oxide (NO)) did it give?
**A.** The value was “inhibits NO production in a dose dependent manner”.

From patent publication US20230010958A1, “CANNABINOID AND LYCOPENE ANTI-INFLAMMATORY SYNERGISTIC COMBINATIONS” (LYCORED LTD., priority 2019, published 2023)
